Test results from ChEMBL document CHEMBL4321815, “Discovery of an Extremely Potent Thiazine-Based β-Secretase Inhibitor with Reduced Cardiovascular and Liver Toxicity at a Low Projected Human Dose” (J Med Chem, 2019).

How the values were obtained:
[1] = Toxicity in anesthetized guinea-pig at 0.19 to 6 mg/kg, iv administered for 5 mins; format: organism-based, Cavia porcellus; settings: in vivo
[2] = Toxicity in anesthetized dog assessed as induction of adverse effect at 0.08 to 2.5 mg/kg, iv administered for 5 mins measured after 5 to 30 mins; format: organism-based, Canis lupus familiaris; settings: in vivo
[3] = Volume of distribution at steady state in Sprague-Dawley rat at 0.5 mg/kg, iv by LC/MS/MS analysis; format: ADME, organism-based; settings: in vivo, read-out: Vdss
[4] = Volume of distribution at steady state in Cynomolgus monkey at 0.5 mg/kg, iv by LC/MS/MS analysis; format: ADME, organism-based, Macaca fascicularis; settings: in vivo, read-out: Vdss
Mus musculus [5] = experiment: In vivo inhibition of BACE1 in po dosed Crl:CD1(ICR) mouse assessed as reduction in amyloidbeta level in brain after 2 to 6 hrs by ELISA; format: functional, organism-based
[6] = Metabolic stability in cynomolgus monkey hepatocytes at 2 uM incubated for 2 hr; format: ADME, cell-based, Macaca fascicularis, Hepatocyte; settings: read-out: Stability
Canis familiaris [7] = experiment: In vivo inhibition of BACE1 in Beagle dog assessed as reduction in amyloidbeta42 level in CSF at 0.08 mg/kg, po administered as single dose measured after 4 to 49 hrs relative to control; format: functional; settings: Canis lupus familiaris
[8] = Cmax in Sprague-Dawley rat at 2.5 mg/kg, po by LC/MS/MS analysis; format: ADME, organism-based; set-up: dose 2.5 mg/kg, route oral; settings: in vivo
[9] = Volume of distribution at steady state in mouse at 0.5 mg/kg, iv; format: ADME, organism-based; settings: in vivo, read-out: Vdss
Beta-secretase 2 = molecular target: T1, Beta-secretase 2 (Homo sapiens, UniProt Q9Y5Z0); experiment: Inhibition of BACE2 (unknown origin) by HTRF assay
T1 sequence (Q9Y5Z0 whole entry): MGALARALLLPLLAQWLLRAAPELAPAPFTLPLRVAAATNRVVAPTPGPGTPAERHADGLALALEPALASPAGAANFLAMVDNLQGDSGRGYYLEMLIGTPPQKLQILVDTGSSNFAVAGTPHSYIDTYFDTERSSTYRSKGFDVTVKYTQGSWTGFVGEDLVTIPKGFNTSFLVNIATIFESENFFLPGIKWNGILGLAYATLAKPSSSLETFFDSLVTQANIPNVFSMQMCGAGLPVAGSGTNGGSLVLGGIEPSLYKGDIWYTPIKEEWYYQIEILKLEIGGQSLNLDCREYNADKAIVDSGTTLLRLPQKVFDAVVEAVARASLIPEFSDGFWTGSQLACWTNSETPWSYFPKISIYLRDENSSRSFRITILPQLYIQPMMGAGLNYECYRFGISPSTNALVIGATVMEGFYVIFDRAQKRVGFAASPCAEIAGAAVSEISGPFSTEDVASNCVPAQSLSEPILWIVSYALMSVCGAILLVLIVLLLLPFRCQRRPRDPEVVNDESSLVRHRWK

[10] = Drug level in Crl:CD1(ICR) mouse brain at 1 mg/kg, po after 2 to 6 hrs; format: ADME, organism-based; settings: in vivo, read-out: Drug uptake
[11] = Clearance in dog at 0.5 mg/kg, iv; format: ADME, organism-based, Canis lupus familiaris; settings: in vivo
[12] = Drug level in Crl:CD1(ICR) mouse brain at 3 mg/kg, po at 6 hrs; format: ADME, organism-based; settings: read-out: Drug uptake
[13] = Clearance in mouse at 0.5 mg/kg, iv; format: ADME, organism-based; settings: in vivo
Canis familiaris [14] = species on record: Canis familiaris; experiment: animal or person; format: functional, organism-based; settings: Canis lupus familiaris, Beagle
[15] = Oral bioavailability in Sprague-Dawley rat at 1 mg/kg by LC/MS/MS analysis; format: ADME, organism-based; settings: in vivo
[16] = Clearance in Cynomolgus monkey at 0.5 mg/kg, iv by LC/MS/MS analysis; format: ADME, organism-based, Macaca fascicularis; settings: in vivo
[17] = Fraction unbound in dog plasma after 24 hrs by equilibrium dialysis based LC-MS/MS analysis; format: ADME, cell-free, Canis lupus familiaris
[18] = Metabolic stability in mouse hepatocytes at 2 uM incubated for 2 hr; format: ADME, cell-based, Hepatocyte; settings: read-out: Stability
[19] = Free drug level in Crl:CD1(ICR) mouse brain at 1 mg/kg, po after 2 to 6 hrs; format: ADME, organism-based; settings: in vivo
[20] = AUC (0 to 24 hrs) in Sprague-Dawley rat at 250 mg/kg/day administered as suspension for 2 weeks; format: ADME, organism-based; set-up: dose 250 mg/kg/day, time < 24 hr; settings: in vivo
Mus musculus [21] = experiment: In vivo inhibition of BACE1 in Crl:CD1(ICR) mouse assessed as reduction in amyloidbeta level in brain at 1 mg/kg, po after 2 to 6 hrs by ELISA relative to control; format: functional
[22] = Toxicity in po dosed Sprague-Dawley rat administered as suspension for 2 weeks; format: organism-based; settings: in vivo
[23] = Tmax in Sprague-Dawley rat at 2.5 mg/kg, po by LC/MS/MS analysis; format: ADME, organism-based; settings: in vivo
[24] = Half life in Sprague-Dawley rat at 0.5 mg/kg, iv by LC/MS/MS analysis; format: ADME, organism-based; settings: in vivo
[25] = Fraction unbound in human plasma after 24 hrs by equilibrium dialysis based LC-MS/MS analysis; format: ADME, cell-free
[26] = AUC in dog at 2.5 mg/kg, po; format: ADME, organism-based, Canis lupus familiaris; settings: in vivo
[27] = Oral bioavailability in dog at 2.5 mg/kg; format: ADME, organism-based, Canis lupus familiaris; settings: in vivo
[28] = Half life in dog at 0.5 mg/kg, iv; format: ADME, organism-based, Canis lupus familiaris; settings: in vivo
Canis familiaris [29] = experiment: In vivo inhibition of BACE1 in po dosed Beagle dog assessed as plasma level causing 80% reduction in amyloidbeta42 level in CSF administered as single dose measured after 4 to 49 hrs; format: functional, Canis lupus familiaris
[30] = Oral bioavailability in Cynomolgus monkey at 2.5 mg/kg by LC/MS/MS analysis; format: ADME, organism-based, Macaca fascicularis; settings: in vivo

C[C@H]1SC(N)=N[C@](C)(c2cc(NC(=O)c3cnc(OCF)cn3)ccc2F)[C@H]1F
NOAEL [1]: > 6.9 µg/mL | fNOAEL [1]: 2.4 µM | NOAEL [2]: > 6.9 µg/mL | fNOAEL [2]: 1.3 µM | Vd [3]: 5 L/kg | Vd [4]: 7 L/kg | inhibition (Mus musculus [5]): Dose-dependent effect | remaining at 2 h, 2 µM [6]: 55% | inhibition in vivo at 0.08 mg/kg (Canis familiaris [7]): 50% | Cmax [8]: 148 ng/mL | Vd [9]: 7.5 L/kg | IC50 (Beta-secretase 2): 7.1 nM | concentration [10]: 87 nM | clearance [11]: 2.6 mL/min/kg | concentration at 6 h [12]: 611 nM | clearance [13]: 41 mL/min/kg | EC50 (Canis familiaris [14]): 1.8 nM | bioavailability [15]: 31% | clearance [16]: 23 mL/min/kg | fraction unbound at 24 h [17]: 0.078 | remaining at 2 h, 2 µM [18]: 71% | Drug uptake(free) [19]: 3 nM | AUC at 24 h [20]: 68000 ng·h/mL | inhibition in vivo at 1 mg/kg (Mus musculus [21]): 55% | NOAEL at 336 h [22]: 250 mg/kg/day | Tmax [23]: 0.7 h | half-life [24]: 2.2 h | fraction unbound at 24 h [25]: 0.083 | AUC [26]: 10400 ng·h/mL | bioavailability [27]: 95% | half-life [28]: 13.7 h | EC80 (Canis familiaris [29]): 100 nM | bioavailability [30]: 24%
